Among the test systems are IGROV1 ovarian; MCF7 breast; SW-620 colon; SK-OV-3 ovarian; HCT-15 colon; DU-145 prostate; HOP-92 NSCLC; SR leukemia.
What all share (experiment): DTP human tumour cell line panel, 48 h

Several values for one entry are separate records, joined by “and”; a condition that tells them apart may be missing. Identical values can stand only once.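 Results reflect a 48-hour exposure of cells in 96-well plates to compound at five concentrations. GI50 is the concentration that inhibits growth by half. Definition used: TGI = concentration required for complete inhibition of growth.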

Broadly, the GI50 is the concentration giving 50% growth inhibition. As usually defined, the TGI is the concentration giving total growth inhibition. Read a low TGI as more potent growth arrest.

Consider `CC(=O)[O][Hg][c]1c(N)c(C)cc(C)c1F`, for which the GI50 with IGROV1 ovarian is 0.939 µM; in the experiment on MCF7 breast, 0.665 µM; with SW-620 colon, 1.44 µM; in the experiment with SK-OV-3 ovarian, 4.36 µM; in the experiment on HCT-15 colon it was 1.01 µM; in the experiment with DU-145 prostate it was 2.39 µM. In addition, the GI50 in the experiment on HOP-92 NSCLC was 1.53 µM; in the experiment on SR leukemia, 0.338 µM. The TGI was determined as 2.79 µM in the experiment on IGROV1 ovarian; 2.99 µM with MCF7 breast; 3.21 µM in the experiment with SW-620 colon; 15.5 µM with SK-OV-3 ovarian; 2.55 µM in the experiment on HCT-15 colon; 7.14 µM in the experiment on DU-145 prostate. In the experiment on HOP-92 NSCLC, this compound came in with a TGI of 2.92 µM.
Consider `CN(C)CCCNC1=C(Cl)C(=O)c2ccccc2C1=O`, for which the GI50 with IGROV1 ovarian is 2.01 µM; in the experiment with MCF7 breast it was 1.61 µM; in the experiment on SW-620 colon it was 1.69 µM; in the experiment on SK-OV-3 ovarian it was 15 µM; with HCT-15 colon, 1.76 µM; in the experiment on DU-145 prostate it was 1.92 µM. The values for the GI50 in the experiment with HOP-92 NSCLC and with SR leukemia were 2.86 µM and 2.8 µM, respectively. In addition, the concentration for total growth inhibition (TGI) with IGROV1 ovarian is 4.12 µM; in the experiment with MCF7 breast it was 3.53 µM; in the experiment on SW-620 colon it was 3.42 µM; in the experiment on SK-OV-3 ovarian it was 28.3 µM; with HCT-15 colon, 4.09 µM; in the experiment with DU-145 prostate, 3.64 µM. Besides, the total growth inhibition concentration (TGI) with HOP-92 NSCLC amounted to 12.3 µM; in the experiment with SR leukemia, 7.61 µM.
For the compound `CCOc1ccccc1-n1c(CN2CCN(C(=O)COc3ccc(CNCCCCCCN4C5CCCC4CC(OC(=O)Nc4cc(C)ccc4OC)C5)cc3)CC2)nc2ccccc2c1=O` (centres undefined), the GI50 was 1.72 µM with IGROV1 ovarian; 0.75 µM with MCF7 breast; 0.757 µM in the experiment with SW-620 colon; 1.89 µM with SK-OV-3 ovarian; 2.23 µM with HCT-15 colon; 1.8 µM in the experiment on DU-145 prostate. Further, the GI50 was 1.37 µM in the experiment with HOP-92 NSCLC and 0.656 µM in the experiment with SR leukemia. The TGI in the experiment with IGROV1 ovarian amounted to 3.47 µM; with MCF7 breast, 2.06 µM; with SW-620 colon, 2 µM; in the experiment on SK-OV-3 ovarian, 3.45 µM; in the experiment with HCT-15 colon, 5.4 µM; with DU-145 prostate, 3.49 µM. Further, the TGI with HOP-92 NSCLC amounted to 2.76 µM; with SR leukemia, 1.59 µM.
Take `COC(=O)[C@@H](C)C[C@H](Cc1ccc(F)cc1)NC(=O)c1csc([C@@H](C[C@H](C(C)C)N(C)C(=O)[C@@H](NC(=O)[C@H]2CCCCN2C)C(C)C)OC(C)=O)n1`: the TGI is over 16.7 µM in the experiment on IGROV1 ovarian; over 16.7 µM in the experiment with MCF7 breast; over 16.7 µM in the experiment with SW-620 colon; over 16.7 µM with SK-OV-3 ovarian; over 16.7 µM in the experiment on HCT-15 colon; 0.0214 µM with DU-145 prostate. Also, the TGI in the experiment on HOP-92 NSCLC is 11.8 µM; in the experiment with SR leukemia it was over 16.7 µM. Further, the GI50 in the experiment with SK-OV-3 ovarian was 0.00736 µM and 0.0553 µM; with DU-145 prostate it was 0.000984 µM and 0.00525 µM; in the experiment on HOP-92 NSCLC, 0.215 µM and 0.0783 µM; with SR leukemia, 0.000437 µM and 0.00167 µM.
`COc1cc(C(=O)/C=C/c2sc(Cl)nc2Cl)cc(OC)c1OC`: the GI50 with IGROV1 ovarian was 1.68 µM; with MCF7 breast, 1.78 µM; in the experiment on SW-620 colon, 1.68 µM; with SK-OV-3 ovarian, 6.43 µM; with HCT-15 colon it was 1.53 µM; in the experiment with DU-145 prostate, 1.8 µM. Besides, the results for the GI50 with HOP-92 NSCLC and in the experiment with SR leukemia were 1.6 µM and 0.384 µM, respectively. Also, the total growth inhibition concentration (TGI) was determined as 3.22 µM in the experiment with IGROV1 ovarian; 3.68 µM with MCF7 breast; 3.45 µM with SW-620 colon; 19.8 µM in the experiment on SK-OV-3 ovarian; 3 µM in the experiment with HCT-15 colon; 3.21 µM in the experiment on DU-145 prostate. Further, the TGI is 3.19 µM with HOP-92 NSCLC and 3.23 µM with SR leukemia.
Turning to `COc1cc2nc(C)nc(N[C@H](C)c3cc(N)cc(C(F)(F)F)c3)c2cc1O[C@H]1CCOC1`, the GI50 with IGROV1 ovarian was 2.25 µM; with MCF7 breast, 12.9 µM; in the experiment with SW-620 colon it was 14.6 µM; with SK-OV-3 ovarian it was 14.2 µM; in the experiment on HCT-15 colon it was 12.6 µM; in the experiment on DU-145 prostate it was 16.2 µM. The GI50 in the experiment on HOP-92 NSCLC is 0.0623 µM; in the experiment with SR leukemia, 2.25 µM. Further, the TGI in the experiment on IGROV1 ovarian stood at 20.3 µM; in the experiment with MCF7 breast, 31.3 µM; in the experiment with SW-620 colon, 31.3 µM; in the experiment with SK-OV-3 ovarian, 28.3 µM; in the experiment on HCT-15 colon it was 27.6 µM; with DU-145 prostate it was 30.5 µM. For the same compound, the TGI in the experiment with HOP-92 NSCLC turned out to be 7.31 µM; with SR leukemia, 29.2 µM.
Take `COc1ccc(C2=CSc3cc(Cl)c(C)cc3S(=O)(=O)N2C(C)=O)cc1`: the GI50 is 36.2 µM with IGROV1 ovarian; 46.2 µM in the experiment on MCF7 breast; 38.7 µM with SW-620 colon; 60.6 µM in the experiment with SK-OV-3 ovarian; 24.6 µM in the experiment on HCT-15 colon; 38.4 µM with DU-145 prostate. In addition, the values for the GI50 with HOP-92 NSCLC and in the experiment with SR leukemia were 21.9 µM and 14.6 µM, respectively. For the same compound, the TGI in the experiment with IGROV1 ovarian was over 100 µM; in the experiment on MCF7 breast, over 100 µM; with SW-620 colon, over 100 µM; with SK-OV-3 ovarian, over 100 µM; with HCT-15 colon, 88.5 µM; in the experiment on DU-145 prostate, over 100 µM. In addition, the TGI with HOP-92 NSCLC and with SR leukemia was over 100 µM each time.
For the compound `CCOC(=O)Nc1nc2ccc(OCC)cc2s1`, the GI50 was 31.7 µM in the experiment with IGROV1 ovarian; 4.14 µM with MCF7 breast; 4.25 µM with SW-620 colon; over 100 µM with SK-OV-3 ovarian; 5.12 µM with HCT-15 colon; over 100 µM in the experiment with DU-145 prostate. The GI50 with HOP-92 NSCLC was over 62.7 µM; in the experiment on SR leukemia it was 1.12 µM. Further, the concentration for total growth inhibition (TGI) with IGROV1 ovarian, in the experiment with MCF7 breast, in the experiment with SW-620 colon, in the experiment on SK-OV-3 ovarian, with HCT-15 colon and in the experiment on DU-145 prostate was over 100 µM throughout. Moreover, the TGI in the experiment on HOP-92 NSCLC and in the experiment with SR leukemia was over 100 µM throughout.
In the case of `COc1cc2c(c(OC)c1O)C(=O)C(OC)C(c1ccc(O)c(O)c1)O2` (centres undefined), the GI50 in the experiment on IGROV1 ovarian is 0.553 µM; in the experiment with MCF7 breast, 0.391 µM; in the experiment on SW-620 colon, 0.234 µM; in the experiment on SK-OV-3 ovarian it was 8.23 µM; in the experiment with HCT-15 colon, 0.0776 µM; with DU-145 prostate, 0.374 µM. For the same compound, the GI50 with HOP-92 NSCLC is 0.697 µM; with SR leukemia, 0.0689 µM. The TGI in the experiment on IGROV1 ovarian, in the experiment on MCF7 breast, in the experiment on SW-620 colon, in the experiment with SK-OV-3 ovarian, in the experiment on HCT-15 colon and in the experiment on DU-145 prostate was over 100 µM in each case. For the same compound, the figures for the TGI in the experiment on HOP-92 NSCLC and with SR leukemia were over 28.9 µM and over 100 µM, respectively.

(Values after PubChem BioAssay (NCI).)
